Experimental data from patent US12419891B2, “Compositions for the treatment of pathogenic- and/or chemical-induced lung injury and for the treatment of cancer and methods of using same” (Duke University, priority 2019, dated 2025).

Legend:
[1] = system: mice exposed to S. aureus; experiment: mouse model of pneumonia induced by nasal insufflation of S. aureus; type: in vivo
Experimental: Bacteria. S. aureus (Ssp. aureus, No. 25923; American Type Culture Collection) was grown as previously described (Suliman H B et al. (2017) Mitochondrial quality control in alveolar epithelial cells damaged by S. aureus pneumonia in mice. American journal of physiology. Lung cellular and molecular physiology 313(4):L699-L709). Dilutions of 5×10^8 CFU were used for mouse experiments, and dilutions of 1×10^8 CFU were used for cell culture experiments. S. pneumoniae (serotype 19, No. 49619; American Type Culture Collection) was grown as previously described (Gomez J C, et al. (2016) Journal of immunology 197(7):2864-2879). Dilutions of 6×10^5 CFU were used for mouse experiments.
CC10 (Scgb1a1)-CreERT; Rosa26R-CAG-farnesylated GFP (Rosa26-fGFP) and SPC (Sftpc)-CreERT2; Rosa26-tdTomato mice were kindly provided by Dr. Mark Onaitis and generated by Dr. Brigid Hogan at Duke University and have been previously described (Rawlins E L, et al. (2009) Cell stem cell 4(6):525-534, Xu X, et al. (2012) Proc Natl Acad Sci USA 109(13):4910-4915). These mice were crossed with Abl1^flox/flox mice (Moresco E M, et al. (2005) J Neurosci 25(26):6105-6118) into a C57BL/6 genetic background. Sox2^tmHoch/J mice (referred to as SOX2-eGFP mice in the text) were purchased from the Jackson Laboratory. Gt(Rosa) 26Sor^tm9(EGFP/Rpl10z)Amc/J (referred to as L10-eGFP in the text) mice were purchased from the Jackson Laboratory and were crossed to CC10-CreERT; Abl1^flox/flox mice into a C57BL/6 genetic background for the TRAP experiments. To induce expression of Cre-recombinase for both TRAP experiments and lineage tracing experiments, 8to 20-week-old male and female mice were injected intraperitoneally four times every other day with 0.25 mg/g body weight Tamoxifen (Sigma-T5648) in corn oil (Spectrum-CO136). Exposure to S. aureus was initiated 15 days after the last dose of Tamoxifen. Alternatively, mice were inoculated with purified Adenovirus5-CC10-Cre virus obtained from the University of Iowa Viral Vector Core Facility and generated by Dr. Anton Berns (Netherlands Cancer Institute). 10 μL of stock virus solution was mixed in 30 μL of Minimum Essential Medium and delivered intranasally twice, three days apart, three weeks prior to induction of S. aureus pneumonia. Mice were anesthetized using 0.3 mg xylazine and […] ketamine intraperitoneally prior to intranasal inoculation with a 50 μL dilution of 5×10^8 S. aureus. The mice were monitored daily for weight loss and signs of respiratory distress and euthanized in an isofluorane chamber at days 0, 1, 2, and 3 after inoculation. All experiments were performed under the Duke University IACUC approved protocols: A098-16-04 and A130-16-06. Male and female mice at different ages (8 to 20 weeks old) were evaluated for differential response to drug (Abl kinase inhibitors and tamoxifen) and/or injury, and no significant effects of age and gender were observed.
Inhibitors. GNF5 (N-(2-Hydroxyethyl)-3-(6-(4-(trifluoromethoxy)phenylamino)pyrimidin-4-yl)benzamide) was synthesized at the Duke University's Small Molecule Synthesis Facility, and validated by LC-MS and 1H-NMR/FT-IR spectra and with cell-based assays that confirm potencies and cell signaling inhibitory activities. For in vivo experiments, GNF5 was prepared in a suspension with 0.5% methylcellulose and 0.5% Tween-80 at a concentration of 10 mg/mL, and mice were treated with either 20 mg/kg, 40 mg/kg, or 100 mg/kg b.i.d. via oral gavage.
Bronchoalveolar lavage preparation and assays. Bronchoalveolar lavage (BAL) fluid was collected immediately after euthanasia three days after exposure to S. aureus as previously described (Suliman H B, et al. (2017) Lung cellular and molecular physiology 313(4):L699-L709). Bilateral BAL was performed using two 1 mL aliquots of sterile PBS with approximately 75-80% retrieval per mouse. […]

[2] = system: Kras G12D/+; p53 -/- driven lung tumors; type: in vivo, mouse; details: GNF5 b.i.d.; docetaxel at sub-therapeutic dose; vehicle four-fold increase
[3] = system: primary human bronchial epithelial cells (HBECs); experiment: basal cell differentiation of primary HBECs in air-liquid interface (ALI) cultures; type: cell-based; details: vs vehicle
Source text: Cell Culture. Primary human bronchial epithelial cells were isolated as previously described (Fulcher M L & Randell S H (2013) Methods Mol Biol 945:109-121) and passage 1 cells were derived from human lungs unsuitable for transplantation from non-smoker organ donors without pre-existing lung disease under protocol #03-1396 approved by the University of North Carolina at Chapel Hill Biomedical Institutional Review Board. Informed consent was obtained from authorized representatives of all organ donors. 30,000 cells were plated into each well of 6.5 mm polyester inserts containing 0.4 μm pores (Sigma-CLS3470) coated with Type IV human placenta collagen (Sigma-C7521). 100 μl of ALI medium was added to the insert and 600 μl of ALI medium was added to the well at the time of plating. At Day 3, ALI medium from the insert was removed while that in the well was changed daily for 28 days. At Day 28, the inserts containing the cells were removed from their wells, washed with PBS, and incubated at 37° C. for 30 minutes with 1×10^8 CFU S. aureus. Cells were then washed three times with PBS and returned to wells containing 600 μl of ALI medium to regrow. Cells were harvested at multiple time points up to five days after injury for protein or RNA extraction. All cultures were maintained at 37° C. in humidified air containing 5% CO2.
First, the role of Abl kinases in basal cell differentiation in primary human bronchial epithelial cells (HBECs) in air-liquid interface (ALI) cultures was examined. Basal cells were isolated from human donor lungs and plated on polyester transwell inserts at passage 1. Once the cells were 100% confluent (3-4 days after plating), media from the top chamber of the transwell insert was removed to promote differentiation of the basal cells into a pseudostratified ciliated epithelium (FIG. 19A). […] Among these are acetylated α-tubulin and SNTN (ciliated cell marker) and SCGB3A2 (secretory cell marker) (FIG. 19C).
To identify whether Abl kinase inhibition promotes early (Krt5+ cells→Krt8+ cells) or late (Krt8+→acetylated α-tubulin or Scgb1a1+ cells) differentiation, a time course experiment in primary HBEC ALI cultures was conducted. Primary HBECs were plated on polyester transwell inserts and treated with vehicle control or GNF5 24 hours after plating.

[4] = system: Basal cells (bronchospheres); experiment: bronchosphere 3D Matrigel culture assay; type: cell-based, human; details: for SOX2 (basal cell marker) expression, immunoblot / acetylated α-tubulin (ciliated cell marker) expression, immunoblot: bronchosphere lysates; for bronchosphere growth: basal cell proliferation and differentiation: treated three days starting two days after plating; for Ki67 (proliferation marker) protein expression: vs untreated cells
Experimental: The effect of Abl kinase inhibition on the development of bronchospheres in a 3D Matrigel culture assay was also evaluated. Basal cells were cultured in Matrigel at passage 1 and treated with vehicle control, the Abl kinase inhibitor, GNF5, or the Abl kinase activator, DPH, for three days starting two days after plating the cells.

Abl kinases = details: Zhang J. et al. (2010) Nature 463:501-506; cited from earlier work
[5] = system: mouse airway epithelium after SO2 injury; experiment: sulfur dioxide (SO2) airway injury mouse model; type: in vivo
Source text: To evaluate whether the Abl kinases promote basal cell differentiation in vivo, the sulfur dioxide (SO2) injury model was employed (FIG. 22). SO2 inhalation elicits cell death and sloughing of luminal (ciliated and secretory) cells, leaving a layer of intact basal cells in the tracheobronchial region (Zuo W. et al. (2015) Nature. 517(7536):616-20). Previous studies have shown that after SO2-induced destruction and sloughing of luminal cells, the surviving basal cells (Krt5+) proliferate to generate progenitor cells (Krt8+) that accumulate and subsequently undergo differentiation into ciliated (acetylated alpha-tubulin+) and secretory (Scgb1a1+) cells (5 days to 2 weeks after injury) (Hogan B L, et al. (2014) Cell stem cell, 15(2):123-38). This well-defined model of airway injury and regeneration has been employed to identify signaling pathways that promote proliferation and differentiation of the lung epithelium after injury (Hogan B L, et al. (2014) Cell stem cell, 15(2):123-38, Tadokoro T, et al., (2014) Proceedings of the National Academy of Sciences of the U.S.A. 111(35):E3641-9).
To distinguish between protective and regenerative effects of Abl kinase inhibition, the expression of various proliferation and differentiation markers in the mouse trachea after injury was evaluated.
Next, whether Abl kinase inhibition promotes basal cell differentiation to Krt8+ cells by affecting Yap1 signaling was investigated. Three days after SO2 injury, mouse tracheas were harvested and evaluated for Yap1 protein expression by immunofluorescence.

Primary HBECs [6] = experiment: primary HBECs pre-treated with Abl kinase inhibitor before exposure to S. aureus, Western blot; type: cell-based, human; details: pre-treated 24 hours prior to exposure to S. aureus
Source text: Cell Culture. Primary human bronchial epithelial cells were isolated as previously described (Fulcher M L & Randell S H (2013) Methods Mol Biol 945:109-121) and passage 1 cells were derived from human lungs unsuitable for transplantation from non-smoker organ donors without pre-existing lung disease under protocol #03-1396 approved by the University of North Carolina at Chapel Hill Biomedical Institutional Review Board. Informed consent was obtained from authorized representatives of all organ donors. 30,000 cells were plated into each well of 6.5 mm polyester inserts containing 0.4 μm pores (Sigma-CLS3470) coated with Type IV human placenta collagen (Sigma-C7521). 100 μl of ALI medium was added to the insert and 600 μl of ALI medium was added to the well at the time of plating. At Day 3, ALI medium from the insert was removed while that in the well was changed daily for 28 days. At Day 28, the inserts containing the cells were removed from their wells, washed with PBS, and incubated at 37° C. for 30 minutes with 1×10^8 CFU S. aureus. Cells were then washed three times with PBS and returned to wells containing 600 μl of ALI medium to regrow. […]
Immunoblotting. […] Protein was quantified, and equal amounts of protein was separated by SDS-polyacrylamide gel electrophoresis (BioRad-1610183) and transferred onto 0.2 μm pore nitrocellulose membranes. […]

Primary HBECs [7] = experiment: transepithelial electrical resistance assay in ALI cultures of primary HBECs; type: cell-based, human; details: vs vehicle control-treated cells
Source text: Thus, inhibition of the Abl kinases in 3D ALI cultures of primary HBECs promotes basal cell differentiation and enhances barrier function.

[8] = day 3 post-infection, treatment started 24 hours after injury (Post)

O=C(NCCO)c1cccc(-c2cc(Nc3ccc(OC(F)(F)F)cc3)ncn2)c1 [GNF5, N-(2-Hydroxyethyl)-3-(6-(4-(trifluoromethoxy)phenylamino)pyrimidin-4-yl)benzamide]
activity and appearance of mice ([1]; 24 h after injury, vs vehicle control-treated mice): active and exhibited a healthy appearance | lung injury in lung tissue sections (H&E) ([1]; 72 hours post-infection, treatment started 1 h after insufflation): significant decrease in lung injury | proportion of GFP+ (Scgb1a1 driver) SPC+ cells ([1]; CC10-CreER, Rosa26-fGFP mice, three days after injury, vs vehicle): significant increase | proportion of SOX2+ SPC+ cells expanding from bronchioles into lung parenchyma ([1]; SOX2-eGFP mice, 100 mg/kg b.i.d. oral gavage from 24 h before insufflation, three days after injury, vs vehicle): dramatic increase | alveolar damage (loss of alveolar area/volume compared to uninfected mice) ([1]; SPC-CreERT2, Rosa26-tdTomato mice, 3 days after injury, vs Abl1 wt or fl/fl mice): reduced damage | tdTomato+, RAGE+ (Type I) cells derived from tdTomato+, SPC+, RAGE- (Type II) cells ([1]; SPC-CreERT2, Rosa26-tdTomato mice, three days after injury): detected at sites of damage only in mice treated with GNF5 | proportion of tdTomato+ (Sftpc driver) RAGE+ Type I AECs ([1]; SPC-CreERT2, Rosa26-tdTomato mice, vs untreated wild-type and Abl1 knockout): increase in the proportion | SPC expression in SCGB1A1+ cells within the bronchioles ([1]; after injury): enhanced SPC expression | BAL protein concentration [1, 8]: significant reduction in protein concentration | BAL protein concentration ([1]; day 3 post-infection, treatment started 24 hours prior to injury (Pre)): significant reduction in protein concentration | recovery of alveolar epithelium (RAGE staining) ([1]; day 3 post-infection, vs control mice): recovered more rapidly | recovery of mice after injury ([1]; two doses, 1 hour and 16 hours after injury, evaluated after 24 hours, vs vehicle): sufficient to promote recovery after 24 hours | change in tumor size over a two-week period (μCT) [2]: two-fold increase in tumor size | SNTN expression (RT-PCR) ([3]; 7 days after plating): increase in expression of SNTN | Krt8 expression (immunofluorescence and Western blot) ([3]; treated 24 hours after plating): significant increase in expression of Krt8 | SOX2 (basal cell marker) expression, immunoblot [4]: decrease in the basal cell marker, SOX2 | acetylated α-tubulin (ciliated cell marker) expression, immunoblot [4]: increase in the ciliated cell marker, acetylated α-tubulin | bronchosphere growth: basal cell proliferation and differentiation [4]: promoted basal cell proliferation and differentiation | Ki67 (proliferation marker) protein expression [4]: increase in protein expression of the proliferation marker, Ki67 | selectivity versus other protein kinases (Abl kinases): does not inhibit other protein kinases | Ki67 expression in tracheal basal cells ([5]; 24 h following SO2 induced injury, vs untreated): significant increase in the expression of Ki67 | Scgb1a1+ Club cells and acetylated α-tubulin+ ciliated cells (staining) ([5]; 24 hours after SO2 exposure): mostly intact layer of secretory cells and some ciliated cells | quantification of acetylated α-tubulin+ ciliated cells in whole tracheas ([5]; 24 hours after sulfur dioxide, pre-treatment 24 hours before): protection of ciliated cells | pseudostratified epithelium in whole trachea sections (immunofluorescence) ([5]; after SO2 injury, vs untreated mice): preservation of the pseudostratified epithelium | Yap1 localization in basal cells ([5]; three days after SO2 injury): predominantly cytoplasmic localization of Yap1 | tracheal epithelium morphology (H&E) ([5]; three days after SO2 injury): stratified, columnar, ciliated epithelium that had almost completely recovered from injury | state of airway epithelium ([5]; within 24 hours after SO2 injury, pre-treated mice): mostly intact mouse airway epithelium

O=C1NC(=O)C(c2cn(-c3ccccc3)nc2-c2ccc(F)cc2)N1 (stereo not drawn) [DPH]
SOX2 (basal cell marker) expression, immunoblot [4]: increased expression of the basal cell marker, SOX2 | acetylated α-tubulin (ciliated cell marker) expression, immunoblot [4]: decreased expression of acetylated α-tubulin | bronchosphere growth: basal cell proliferation and differentiation [4]: reduced bronchosphere growth and differentiation

Cc1cn(-c2cc(NC(=O)c3ccc(C)c(Nc4nccc(-c5cccnc5)n4)c3)cc(C(F)(F)F)c2)cn1 [nilotinib]
expression of downstream transcriptional targets of YAP (Birc5, c-Myc, Cyclin D3) (Primary HBECs [6]): decreased transcript and protein expression | lung injury ([1]; FIG. 9F, treatment 24 h after injury): significant reduction in lung injury | BAL protein concentration [1, 8]: reduction in protein in the airspace | transepithelial electrical resistance across monolayer (Primary HBECs [7]): increased resistance | acetylated α-tubulin expression (3D reconstruction) ([3]; 7 days after plating): increase in expression of acetylated α-tubulin | acetylated α-tubulin protein expression (Western blot) ([3]; 7 days after plating): increase in protein expression of acetylated α-tubulin | SOX2 (basal cell marker) expression, immunoblot [4]: decrease in the basal cell marker, SOX2 | acetylated α-tubulin (ciliated cell marker) expression, immunoblot [4]: increase in the ciliated cell marker, acetylated α-tubulin | Ki67 (proliferation marker) protein expression [4]: increase in protein expression of the proliferation marker, Ki67
